This is an account of results in patent US9499551B2, “Substituted pyrrolo[2,3-b]pyridines for treating cancer or inflammatory diseases” (Confluence Life Sciences, Inc., priority 2014, dated 2016).

Each structure is given as a SMILES string. pIC50: −log10 of the molar value.

Assay [1] concerns IL-6 Production in Human Peripheral Blood Mononuclear Cells (PBMC). Put plainly: LPS stimulated IL-6 production in PBMC cells. It is filed as cell-based. Particulars: read-out: IL-6 Production Inhibition IC50.
The target of a further assay is T1, TAK1-TAB1 (Homo sapiens, UniProt O43318).
T1 sequence (O43318 with tags, fused parts or gaps limits assumed): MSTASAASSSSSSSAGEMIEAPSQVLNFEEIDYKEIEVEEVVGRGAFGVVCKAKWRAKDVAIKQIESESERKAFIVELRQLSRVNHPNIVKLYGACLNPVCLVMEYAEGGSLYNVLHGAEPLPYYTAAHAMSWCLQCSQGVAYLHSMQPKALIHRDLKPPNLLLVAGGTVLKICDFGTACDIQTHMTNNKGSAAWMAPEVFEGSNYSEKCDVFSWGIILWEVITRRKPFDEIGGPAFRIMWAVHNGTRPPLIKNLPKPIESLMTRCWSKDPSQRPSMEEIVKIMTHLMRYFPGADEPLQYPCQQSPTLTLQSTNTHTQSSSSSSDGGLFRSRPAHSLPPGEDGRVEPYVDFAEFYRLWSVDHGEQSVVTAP
Put plainly: TAK1-TAB1 binding inhibitory potency (LanthaScreen competitive binding assay, kinase tracer-236). To be noted: 10 nM TAK1-TAB1, 100 nM kinase tracer-236; read-out: TAK1-Tab Inhibition IC50. Summed up: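 Compounds were tested for TAK1-TAB1 binding in a 384-well LanthaScreen competitive FRET assay. TAK1-TAB1 (10 nM) and Eu-anti-his antibody (2 nM) were preincubated with compound for two hours before adding 100 nM Alexa Fluor 647 kinase tracer-236. The buffer was 20 mM HEPES pH 7.5, 10 mM MgCl2, 0.01% BSA, 0.0005% Tween-20 and 2% DMSO. IC50 came from 4-parameter logistic fits of emission ratio over an 11-point series from 20 μM to 0.34 nM.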

Usually pIC50 stands for −log10 of the IC50, conventionally taken in molar units. Turning to `CN1CCC(NC(=O)c2ccc(-c3cnc4[nH]cc(/C=C/C(N)=O)c4c3)nc2)CC1` [Example 296, (E)-6-(3-(3-amino-3-oxoprop-1-en-1-yl)-1H-pyrrolo[2,3-b]pyridin-5-yl)-N-(1-methylpiperidin-4-yl)nicotinamide], the pIC50 was below 6.00 in assay [1] and at least 6.00 on TAK1-TAB1.
For the compound `NC(=O)/C=C/c1c[nH]c2ncc(N3CCN(c4ccccc4)CC3)cc12` [Example 297, (E)-3-(5-(4-phenylpiperazin-1-yl)-1H-pyrrolo[2,3-b]pyridin-3-yl)acrylamide], the pIC50 (in assay [1]; on TAK1-TAB1) was at least 6.00 each time.
Take `NC(=O)/C=C/c1c[nH]c2ncc(N3CC(NC(=O)c4ccccc4)C3)cc12` [Example 298, (E)-N-(1-(3-(3-amino-3-oxoprop-1-en-1-yl)-1H-pyrrolo[2,3-b]pyridin-5-yl)azetidin-3-yl)benzamide]: the negative-log IC50 (pIC50) (in assay [1]; on TAK1-TAB1) was at least 6.00 in each case.
Turning to `CC(O)c1cncc(-c2cnc3[nH]cc(/C=C/C(N)=O)c3c2)c1` (centres unmarked) [Example 299, (E)-3-(5-(5-(1-hydroxyethyl)pyridin-3-yl)-1H-pyrrolo[2,3-b]pyridin-3-yl)acrylamide], the pIC50 in assay [1] was below 6.00; at TAK1-TAB1, at least 6.00.
